Measurements reported in patent US20140024683A1, “CHLORIDE CHANNEL AND CHLORIDE TRANSPORTER MODULATORS FOR THERAPY IN SMOOTH MUSCLE DISEASES” (priority 2011, published 2014).

Tested on: guinea pig tracheal rings
Assay: Attenuation of the initiation of an acetylcholine contraction by pretreatment, guinea pig tracheal rings
Details: pretreatment with single agent alone
Procedure: Animal protocols were approved by the Columbia University Animal Care and Use Committee. Male Hartley guinea pigs weighing approximately 400 g were anesthetized with intraperitoneal injection of sodium pentobarbital (100 mg/kg). Trachea were removed and transferred to ice cold Krebs-Henseleit (KH) buffer of the following composition (in mM): NaCl 118, KCl 5.6, CaCl2 0.5, MgSO4 0.24, NaH2PO4 1.3, NaHCO3 25, glucose 5.6, pH 7.4. Epithelial-denuded tracheal rings were prepared using a dissecting microscope. Epithelium was removed by gently passing cotton fibers through the lumen of the tracheal rings. The rings were suspended in 4 mL-water jacketed organ baths (37° C.: Radnoti Glass Technology, Monrovia, Calif.) and connected to a Grass FT03 force transducer (Grass Telefactor, West Warwick, R.I.) using silk sutures. The transducers were coupled to the computer with BioPac hardware and data was collected using Acqknowledge 7.3.3 software (BioPac Systems, Goleta, Calif.). KH buffer was bubbled with a gas mixture of 95% oxygen and 5% carbon dioxide and buffer was exchanged every 15 minutes for 1 hour during equilibration of tracheal rings at 1 g resting tension. […].
Compounds 1 and 13 were tested for their abilities to attenuate the initiation phase of an acetylcholine contraction, as acetylcholine is a natural bronchoconstrictor and prevention of contraction would have clinical utility. […]

CCCCNc1cc(C(=O)O)cc(S(N)(=O)=O)c1Oc1ccccc1 [bumetanide]
attenuation of the initiation of an acetylcholine contraction: failed to significantly attenuate a contraction
